{"source": "patent US8445521B2", "about": "“Synergistic antimicrobial composition” (Dow GLobal Technologies LLC, priority 2009, dated 2013)", "key": {"[1]": {"test_system": "oil field isolated anaerobic consortium, mainly SRB", "assay": "Biocidal efficacy (MBC, complete bacterial kill) against anaerobic bacteria in contaminated salt solution", "format": "cell-based, sulfate reducing bacteria (SRB)", "details": "40° C., 24 hours", "protocol": "Inside an anaerobic chamber (BACTRON anaerobic chamber), a deaerated sterile salt solution (3.1183 g of NaCl, 1.3082 mg of NaHCO3, 47.70 mg of KCl, 72.00 mg of CaCl2, 54.49 mg of MgSO4, 172.28 mg of Na2SO4, 43.92 mg of Na2CO3 in 1 L water) was contaminated with an oil field isolated anaerobic consortium, mainly SRB, at final bacterial concentrations of 10^6 to 10^7 CFU/mL. The aliquots of this contaminated water were then treated with NaOPP and DMOZ, or the NaOPP/DMOZ combination, NaOPP and Tris Nitro, or the NaOPP/Tris Nitro combination, NaOPP and HHT, or the NaOPP/HHT combination at different active concentration levels. […] Tables 1-3 summarize the efficacy of each biocide and their blends, and the Synergy Index of each combination."}, "[2]": {"test_system": "Pseudomonas aeruginosa, ATCC 10145 and Staphylococcus aureus, ATCC 6538", "assay": "Biocidal efficacy (MBC, complete bacteria kill) against aerobic bacteria in contaminated NaCl solution", "format": "cell-based", "details": "37° C., 24 hours", "protocol": "A sterile NaCl solution (0.85%) was contaminated with Pseudomonas aeruginosa, ATCC 10145 and Staphylococcus aureus, ATCC 6538 at final bacterial concentration of ca. 10^6 CFU/mL. The aliquots of this contaminated water were then treated with NaOPP and Tris Nitro, or the NaOPP/Tris Nitro combination, NaOPP and DMOZ or the NaOPP/DMOZ combination at different active concentration levels. After the mixtures were incubated at 37° C. for 24 hours, the biocidal efficacy was determined by minimum tested biocide concentration for complete bacteria kill in the aliquots. Tables 4 and 5 summarize the efficacy of each biocide and their blends, and the Synergy Index of each combination."}, "[3]": {"details": "NaOPP alone or NaOPP part of NaOPP/DMOZ blend"}, "[4]": {"details": "NaOPP alone or NaOPP part of NaOPP/Tris Nitro blend"}, "[5]": {"details": "Tris Nitro alone or Tris Nitro part of NaOPP/Tris Nitro blend"}, "[6]": {"details": "DMOZ alone or DMOZ part of NaOPP/DMOZ blend"}}, "data": [{"smiles": "[Na+].[O-]c1ccccc1-c1ccccc1", "note": "[NaOPP, sodium o-phenylphenylate]", "values": [{"measurement": "MBC (active ppm) NaOPP", "setting": "[1]; [3]", "result": 333.3, "unit": "active ppm"}, {"measurement": "MBC (active ppm) NaOPP", "setting": "[1]; NaOPP alone or NaOPP part of NaOPP/HHT blend", "result": 500, "unit": "active ppm"}, {"measurement": "MBC (active ppm) NaOPP", "setting": "[1]; [4]", "result": 500, "unit": "active ppm"}, {"measurement": "Average MBC (active ppm) NaOPP", "setting": "[2]; [3]", "result": 292.9, "unit": "active ppm"}, {"measurement": "MBC (active ppm) NaOPP", "setting": "[2]; [4]", "result": 266.3, "unit": "active ppm"}]}, {"smiles": "OCCN1CN(CCO)CN(CCO)C1", "note": "[HHT, hexahydro-1,3,5-tris(2-hydroxyethyl)-s-triazine]", "values": [{"measurement": "MBC (active ppm) HHT", "setting": "[1]; HHT alone or HHT part of NaOPP/HHT blend", "result": 111.1, "unit": "active ppm"}]}, {"smiles": "O=[N+]([O-])C(CO)(CO)CO", "note": "[Tris Nitro, tris(hydroxymethyl)nitromethane]", "values": [{"measurement": "MBC (active ppm) Tris Nitro", "setting": "[1]; [5]", "result": 44.4, "unit": "active ppm"}, {"measurement": "MBC (active ppm) Tris Nitro", "setting": "[2]; [5]", "result": 25.1, "unit": "active ppm"}]}, {"smiles": "CC1(C)COCN1", "note": "[DMOZ, 4,4-dimethyloxazolidine]", "values": [{"measurement": "MBC (active ppm) DMOZ", "setting": "[1]; [6]", "result": 74.1, "unit": "active ppm"}, {"measurement": "Average MBC (active ppm) DMOZ", "setting": "[2]; [6]", "result": 86.1, "unit": "active ppm"}]}]}
